Results as given in PMC6539602, “Antioxidant and Photoprotective Activity of Apigenin and Its Potassium Salt Derivative in Human Keratinocytes and Absorption in Caco-2 Cell Monolayers” (International Journal of Molecular Sciences, 2019).

What was measured:
Caco-2 cell monolayer = test system: Caco-2 cell monolayer; parameters: method as in PMID 29186068; settings: Caco-2 cell model; cited from earlier work
[1] = Caco-2 cell monolayer bidirectional permeability; format: in vitro ADME; settings: human
Procedure: The cells were seeded into 6-well inserts with a polyethylene terephthalate (PET) membrane (pore size of 0.4 µm) (BD Falcon) at a density of 1.0 × 10^5 cells. Cell culture was maintained at 37 °C under 90% humidity and 5% CO2. The medium was replaced every 2–3 days for both the apical (AP) and basolateral (BL) chambers of the transwell filters. Cell monolayers were used 19–21 days after seeding, once confluence and differentiation were achieved. To check the integrity of each cell monolayer, the transepithelial electrical resistance (TEER) was measured before and after the experiments with an epithelial voltohmmeter (Millicell-ERS®). Permeability studies were performed by adding apigenin and apigenin-K at a concentration of 50 µM dissolved in HBSS medium (pH 7.4). The transport experiment was initiated by removing the culture medium from the AP and BL chambers. HBSS medium was prewarmed to wash the Caco-2 monolayers twice and, subsequently, to incubate the monolayers for 30 min at 37 °C. Afterwards, the test compounds were added to the apical (AP) or basolateral (BL) chambers to perform bidirectional permeability studies, while the receiving chamber contained the corresponding volume of HBSS. The six-well plate containing the cell monolayers was put into an orbital environmental shaker, which was set at a constant temperature (37 °C) and agitation rate (54 rpm) for the duration of the permeability experiments. […] The apparent permeability (Papp) values for each compound and direction can be calculated according to the following equation:(2) Papp= dQ/dt×1/A×C0×60 where Papp is the apparent permeability (cm/s), dQ/dt is the steady state flux, A is the diffusion area of the membrane (cm^2), C0 is the initial compound concentration in the donor compartment (µM) and 60 is a conversion factor [54]. […] In addition, the efflux ratio (ER) was calculated to determine the absorption mechanism, such as the ratio of Papp (BL-AP) to Papp (AP-BL). (3) ER= Papp (BL-AP)/Papp (AP-BL) The analyses of the samples from the permeability assay were analyzed via a high-performance liquid chromatograph Agilent LC 1100 series (Agilent Technologies, Inc., Palo Alto, CA, USA) controlled by the ChemStation software and equipped with a pump, autosampler, column oven and UV-Vis diode array detector. The samples were separated on a Poroshell 120 SB-C18 column (2.7 µm, 4.6 × 150 mm) after each 10 µL injection and were monitored at 280 nm. […] Quantitative evaluations of the apigenin or apigenin-K concentration were performed using the corresponding calibration graph of each compound with a six-point regression curve (r^2 > 0.999).

[2] = Ferric reducing antioxidant power (FRAP); format: biochemical; settings: mean ± SD
Procedure: (§1) Three different methods were performed to determine the antioxidant capacity of both apigenins. The Trolox equivalent antioxidant capacity (TEAC) was performed, as previously reported to establish the ABTS^·+ scavenging ability of both compounds [21]. The TEAC of the samples was calculated from the standard curve of Trolox, and the results are expressed in micromoles of Trolox equivalents (TE) per millimole of compound. The ferric reducing antioxidant power (FRAP) assay was performed, as described elsewhere. The reduction of a ferric-tripyridyltriazine complex was estimated, and the results are expressed in micromoles of Fe^2+ per millimole of compound. To assay the capacity of the compounds to scavenge peroxyl radicals, a validated assay of the oxygen radical absorbance capacity (ORAC) method was used. The ORAC assay was carried out on a microplate reader (POLAstar Omega, BMG LabTech GmbH, Offenburg, Germany) with 495 nm excitation and 520 nm emission filters to monitor fluorescein oxidation. The results are expressed in micromoles of TE per millimole of compound.

[3] = Trolox equivalent antioxidant capacity (TEAC); format: biochemical; settings: Trolox equivalents per millimole of compound; mean ± SD
Procedure: as §1

[4] = Oxygen radical absorbance capacity (ORAC); format: biochemical; settings: Trolox equivalents per millimole of compound; mean ± SD
Procedure: as §1

efflux ratio at 120 min, 50 µM ([1]; Caco-2, pH 7.4, Papp (BL-AP)/Papp (AP-BL)): 0.51 | Papp A→B at 120 min, 50 µM ([1]; Caco-2, apical-to-basolateral, 50 µM, HBSS pH 7.4, 120 min, mean of 6 replicates ± SD): 18.1 ± 1.7 ×10⁻⁶ cm/s | Papp B→A at 120 min, 50 µM ([1]; Caco-2, basolateral-to-apical, 50 µM, HBSS pH 7.4, 120 min, mean of 6 replicates ± SD): 9.3 ± 1.3 ×10⁻⁶ cm/s | Papp at 120 min, 50 µM ([1]; pH 7.4, Caco-2 cell model, read-out: apparent permeability (Papp)): 18.1 ×10⁻⁶ cm/s
SMILES: O=c1cc(-c2ccc(O)cc2)oc2cc(O)cc(O)c12 [Apigenin, 4′,5,7-trihydroxyflavone]
apparent permeability relative to its flavonol kaempferol (Caco-2 cell monolayer): 2.5 fold | FRAP [2]: 113.2 ± 12.2 µmol Fe^2+/mmol | TEAC [3]: 2022.2 ± 154.8 µmol TE/mmol | ORAC [4]: 887.9 ± 5.8 µmol TE/mmol
